Active and inactive are the calls of the source. The rule behind the calls is not given here.
Legend:
[1] = test system: HT-22; assay: Neuroprotective activity against monosodium glutamate-induced cell death in mouse HT22 cells at 5 uM preincubated for 2 hrs followed by monosodium glutamate addition measured after 24 hrs by phase contrast microscopic analysis; type: functional, cell-based
[2] = test system: HT-22; assay: Neuroprotective activity against monosodium glutamate-induced cell death in mouse HT22 cells assessed as cell viability at 25 to 50 uM preincubated for 2 hrs followed by monosodium glutamate addition measured after 24 hrs by MTT assay (reference value: 50%); type: functional
[3] = test system: HT-22; assay: Neuroprotective activity against monosodium glutamate-induced cell death in mouse HT22 cells assessed as cell viability at 10 uM preincubated for 2 hrs followed by monosodium glutamate addition measured after 24 hrs by MTT assay (reference value: 50%); type: functional; conditions: read-out: Activity
[4] = test system: HT-22; assay: Neuroprotective activity against monosodium glutamate-induced cell death in mouse HT22 cells at 10 uM preincubated for 2 hrs followed by monosodium glutamate addition measured after 24 hrs by phase contrast microscopic analysis; type: functional, cell-based

| Structure (SMILES) | Activity [1] | Activity [2] [%] | viability at 10 µM [3] [%] | Activity [4] |
| --- | --- | --- | --- | --- |
| COc1ccc(CNc2ccccc2C(N)=O)c2nc3cccc(C(=O)O)c3nc12 | inactive | >90 | 90 | Active |
| COc1ccc(CNc2ccccc2C(N)=O)c2nc3cccc(C(N)=O)c3nc12 | inactive | – | 90 | Active |
